Test results from patent US20190241569A1, “3-(ARYL OR HETEROARYL) METHYLENEINDOLIN-2-ONE DERIVATIVES AS INHIBITORS OF CANCER STEM CELL PATHWAY KINASES FOR THE TREATMENT OF CANCER” (Boston Biomedical, Inc., priority 2013, published 2019).
Structures can show the parent of a compound that is named as a salt. Where two headings read alike, the source gives them in different places.

Assays:
FaDu = experiment: Bulk cancer cells, Cell Titer-Glo 72 hours (Test Example 2); assay type: cell-based; conditions: Homo sapiens
Protocol: (§1) Tubes of 3× drug (60 uM in 500 uL complete media) were prepared from 5 mM stock solutions in DMSO. […] To treat cells, 50 uL of drug from the dilution plate was removed and added to the cell plates. […] Cells were harvested 72 hours after drug addition using Cell Titer-Glo (Promega) and luminescence measured on a plate reader.

p-AMPK Thr172 = experiment: Kinase inhibition, Western blot in HeLa cells (Test Example 5); assay type: cell-based; conditions: Homo sapiens, 6 hours, DMSO = 100, read-out: p-AMPK Relative Intensity (%)
Protocol: (§2) HeLa cells were treated with 5 uM of the indicated compound for 6 hours. Following compound incubation, cells were washed twice with ice-cold PBS and lysed in lysis buffer (50 mM HEPES, pH 7.5, 1% Nonidet P40, 150 mM NaCl, 1 mM EDTA, 1× protease inhibitor cocktail (Promega)). 30 micrograms of soluble protein was separated by SDS-PAGE and transferred to PVDF membranes. Primary antibodies against p-AMPK Thr172, p-RPS6 Ser235/236, p-RPS6 Ser240/244, and Tubulin (Cell Signaling Technology) were used. The antigen-antibody complexes were visualized by enhanced chemiluminescence (BioRad). The results are shown below in Tables 17A-17E.

p-RPS6 Ser235/236 = experiment: as above; assay type: cell-based; conditions: Homo sapiens, 6 hours, DMSO = 100, read-out: p-RPS6 Ser235/236 Relative Intensity (%)
Protocol: as §2

p-RPS6 Ser240/244 = experiment: as above; assay type: cell-based; conditions: Homo sapiens, 6 hours, DMSO = 100, read-out: p-RPS6 Ser240/244 Relative Intensity (%)
Protocol: as §2

FaDu CSC = experiment: Cancer stem cells, Cell Titer-Glo 72 hours (Test Example 3); assay type: cell-based; conditions: Homo sapiens, FaDu, 72 h
A549 CSC = experiment: as above; assay type: cell-based; conditions: Homo sapiens
human RIOK2 protein = molecular target: T1, human RIOK2 protein (Homo sapiens, UniProt Q9BVS4); experiment: RIOK2 autophosphorylation ELISA (Test Example 4); assay type: biochemical; conditions: for inhibition at 1 µM: read-out: Inhibitory activity at 1 μM (%); for inhibition at 10 µM: read-out: Inhibitory activity at 10 μM (%)
T1 construct: glutathione S-transferase is fused to N-terminal of a full-length human RIOK2 protein; GST (glutathione S-transferase) (N); purchased CarnaBio, Inc; host or cells: baculovirus-Sf21 cell expression system
Protocol: A protein in which glutathione S-transferase is fused to N-terminal of a full-length human RIOK2 protein was used as a recombinant human RIOK2 protein. The protein was prepared using a baculovirus-Sf21 cell expression system from CarnaBio, Inc. A kinase reaction solution was prepared by mixing 25 μg/mL of the recombinant human RIOK2 protein and 100 μM of ATP in 20 μl of kinase reaction buffer (50 mM Tris-HCl, 10 mM MgCl2, 10 mM MnCl2, 1 mM DTT, 0.01% Brij, 1× PhosSTOP (manufactured by Roche Applied Science)), and was incubated at a temperature of 30° C. for 1 hour. After adding 30 μl of 40 mM EDTA solution to this kinase reaction solution, the kinase reaction solution was transferred to a MaxiSorp 96 well plate (manufactured by Nunc). Thereafter, phosphorylated human RIOK2 protein was allowed to adsorb onto the wells by leaving the plate in a refrigerator overnight.
The following day, the supernatant was removed, and the wells were washed three times with ELISA buffer (20 mM Tris-HCl, 150 mM NaCl, 0.2% Tween-20, 0.1% BSA). Thereafter, 100 μl of Blocking-One P (product name; manufactured by Nacalai Tesque, Inc.) was applied to the wells, and a blocking treatment was performed for 1 hour at room temperature. […] After further washing the wells, a secondary antibody, anti-rabbit IgG conjugated with horseradish peroxidase (manufactured by Jackson ImmunoResearch; 1/4000 ELISA buffer-diluted solution), was applied to the wells, and incubation was performed for 30 minutes at room temperature. After washing the wells once again, 50 μl of tetramethyl benzidine (TMB) aqueous solution (manufactured by Nacalai Tesque, Inc.) was applied to the wells, and a coloring reaction was performed for 30 minutes at room temperature. Thereafter, the coloring reaction was stopped by adding 50 μl of 2M H2SO4 to the wells. An absorptiometric level of 450 nm was measured in each well using ARVO SX (manufactured by Wallac).

A549 = experiment: Bulk cancer cells, Cell Titer-Glo 72 hours (Test Example 2); assay type: cell-based; conditions: Homo sapiens
Protocol: as §1

ACHN = experiment: as above; assay type: cell-based; conditions: Homo sapiens, ACHN, 72 h
Protocol: as §1

ACHN CSC = experiment: Cancer stem cells, Cell Titer-Glo 72 hours (Test Example 3); assay type: cell-based; conditions: Homo sapiens, ACHN, 72 h

T1 sequence (Q9BVS4 whole entry, the tested form may be a part): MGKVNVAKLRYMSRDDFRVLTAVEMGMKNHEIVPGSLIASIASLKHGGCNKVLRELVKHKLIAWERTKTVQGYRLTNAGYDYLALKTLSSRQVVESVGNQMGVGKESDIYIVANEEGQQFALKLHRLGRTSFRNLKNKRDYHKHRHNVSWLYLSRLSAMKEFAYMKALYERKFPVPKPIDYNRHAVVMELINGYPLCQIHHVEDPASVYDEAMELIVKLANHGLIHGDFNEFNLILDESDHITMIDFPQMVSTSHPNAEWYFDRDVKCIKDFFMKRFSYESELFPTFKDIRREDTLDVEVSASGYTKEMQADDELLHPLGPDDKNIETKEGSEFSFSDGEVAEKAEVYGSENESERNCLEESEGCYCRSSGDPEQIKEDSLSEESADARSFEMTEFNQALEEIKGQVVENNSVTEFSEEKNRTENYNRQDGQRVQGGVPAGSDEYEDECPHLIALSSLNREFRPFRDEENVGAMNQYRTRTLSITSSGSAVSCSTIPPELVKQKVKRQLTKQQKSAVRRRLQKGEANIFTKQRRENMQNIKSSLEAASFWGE

SMILES | IC50 (FaDu) | inhibition at 1 µM (human RIOK2 protein) | inhibition at 10 µM (human RIOK2 protein) | further results
COc1ncccc1-c1cccc2c1/C(=C/c1[nH]c(C)cc1C)C(=O)N2 [Example 271] | 22.6 µM | – | – | activity at 5 µM (p-AMPK Thr172; 5 uM compound, Western blot): 105%; activity at 5 µM (p-RPS6 Ser235/236; 5 uM compound, Western blot): 67%; activity at 5 µM (p-RPS6 Ser240/244; 5 uM compound, Western blot): 67%
CCN(CC)CCNC(=O)c1c(C)[nH]c(/C=C2\C(=O)Nc3ccc(-c4ncc(-c5ccccc5)o4)cc32)c1C [Example 19] | 7.35 µM | 32% | 56% | IC50 (FaDu CSC): 27.6 µM; IC50 (A549 CSC): 0.35 µM
CCN(CC)CCNC(=O)c1c(C)[nH]c(/C=C2\C(=O)Nc3ccc(-c4ccnn4-c4ccccc4)cc32)c1C [Example 22] | 3.01 µM | 55% | 100% | IC50 (A549): 2.94 µM; IC50 (ACHN): 6.57 µM; IC50 (FaDu CSC): 3.46 µM; IC50 (A549 CSC): 5.54 µM; IC50 (ACHN CSC): 1.17 µM
Cc1[nH]c(/C=C2\C(=O)Nc3ccc(-c4nnc(-c5ccccc5)s4)cc32)c(C)c1C(=O)N1CCN(C)CC1 [Example 2] | 14.1 µM | – | 19% | IC50 (A549): 48.9 µM; IC50 (FaDu CSC): 0.23 µM
CCN(CC)CCNC(=O)c1c(C)[nH]c(/C=C2\C(=O)Nc3ccc(-c4cnn(C5CCOCC5)c4)cc32)c1C [Example 47] | 4.22 µM | 32% | 68% | IC50 (A549): 16 µM; IC50 (ACHN): 10.4 µM; IC50 (FaDu CSC): 2.57 µM
Cc1[nH]c(/C=C2\C(=O)Nc3ccc(-c4ccc(-c5ccccc5)s4)cc32)c(C)c1C(=O)N1CCN(C)CC1 [Example 3] | 25.4 µM | – | 65% | IC50 (FaDu CSC): 1.16 µM
CCN(CC)CCCNC(=O)c1c(C)[nH]c(/C=C2\C(=O)Nc3ccc(-c4cnn(-c5ccccc5)c4)cc32)c1C [Example 90] | – | 20% | 96% | –
Cc1[nH]c(/C=C2\C(=O)Nc3ccc(-c4cnn(-c5ccccc5)c4)cc32)c(C)c1C(=O)NCc1nc2ccccc2[nH]1 [Example 99] | – | -11% | 79% | –
CCN(CC)CCNC(=O)c1c(C)[nH]c(/C=C2\C(=O)Nc3ccc(-c4ccnn4-c4ccccn4)cc32)c1C [Example 63] | – | 14% | 93% | –
CCN(CC)CCNC(=O)c1c(C)[nH]c(/C=C2\C(=O)Nc3ccc(-c4cnn(-c5nccs5)c4)cc32)c1C [Example 73] | – | 18% | 111% | –
CCN(CC)CCNC(=O)c1c(C)[nH]c(/C=C2\C(=O)Nc3ccc(-c4cnn(-c5ncccn5)c4)cc32)c1C [Example 70] | – | 42% | 112% | –
Cc1[nH]c(/C=C2\C(=O)Nc3ccc(-c4cnn(-c5ccccc5)c4)cc32)c(C)c1C(=O)NCCc1ncc[nH]1 [Example 98] | – | -2% | 25% | –
CCN(CC)CCNC(=O)c1c(C)[nH]c(/C=C2\C(=O)Nc3ccc(-c4cnn(-c5cnccn5)c4)cc32)c1C [Example 68] | – | 47% | 95% | –
Cc1[nH]c(/C=C2\C(=O)Nc3ccc(-c4cnn(-c5ccccc5)c4)cc32)c(C)c1C(=O)NC1[C@H]2CNC[C@@H]12 (stereo partly drawn) [Example 95] | – | 22% | 134% | –
CCN(CC)CCNC(=O)c1c(C)[nH]c(/C=C2\C(=O)Nc3ccc(-c4cnn(-c5ccccn5)c4)cc32)c1C [Example 32] | 0.51 µM | 36% | 86% | IC50 (A549): 1.72 µM; IC50 (ACHN): 1.24 µM; IC50 (FaDu CSC): 0.05 µM; IC50 (A549 CSC): 2.53 µM; IC50 (ACHN CSC): 0.13 µM
CCN(CC)CCNC(=O)c1c(C)[nH]c(/C=C2\C(=O)Nc3ccc(-c4cnn(-c5cscn5)c4)cc32)c1C [Example 72] | – | 41% | 99% | –
CCN(CC)CCNC(=O)c1c(C)[nH]c(/C=C2\C(=O)Nc3ccc(-c4ccc(-c5ccccc5)s4)cc32)c1C [Example 1, (Z)-N-(2-(diethylamino)ethyl)-2,4-dimethyl-5-((2-oxo-5-(5-phenylthiophen-2-yl)indolin-3-ylidene)methyl)-1H-pyrrole-3-carboxamide] | 4.74 µM | – | 14% | IC50 (ACHN): 7.6 µM; IC50 (FaDu CSC): 1.2 µM
CCN(CC)CCNC(=O)c1c(C)[nH]c(/C=C2\C(=O)Nc3ccc(-c4ccnn4-c4ccc(F)cc4)cc32)c1C [Example 57] | – | 39% | 104% | –
CCN(CC)CCNC(=O)c1c(C)[nH]c(/C=C2\C(=O)Nc3ccc(-c4cnn(-c5ccccc5)c4)cc32)c1C [Example 4] | 6.25 µM | 45% | 94% | IC50 (A549): 5.35 µM; IC50 (ACHN): 2.28 µM; IC50 (FaDu CSC): 0.6 µM; IC50 (A549 CSC): 4.83 µM
Cc1[nH]c(/C=C2\C(=O)Nc3cc(-c4ccc(-c5ccccc5)s4)ccc32)c(C)c1C(=O)N1CCN(C)CC1 [Example 29] | – | – | – | activity at 5 µM (p-AMPK Thr172; 5 uM): 108%; activity at 5 µM (p-RPS6 Ser235/236; 5 uM): 36%; activity at 5 µM (p-RPS6 Ser240/244; 5 uM): 68%
CCN(CC)CCN(C)C(=O)c1c(C)[nH]c(/C=C2\C(=O)Nc3ccc(-c4cnn(-c5ccccc5)c4)cc32)c1C [Example 92] | – | 3% | 113% | –
CCOCCCNC(=O)c1c(C)[nH]c(/C=C2\C(=O)Nc3ccc(-c4cnn(-c5ccccc5)c4)cc32)c1C [Example 91] | – | -7% | 43% | –
CCN(CC)CCNC(=O)c1c(C)[nH]c(/C=C2\C(=O)Nc3ccc(-c4cnn(-c5ccccc5Cl)c4)cc32)c1C [Example 71] | – | 4% | 99% | –
Cc1[nH]c(/C=C2\C(=O)Nc3ccc(-c4cnn(-c5ccccc5)c4)cc32)c(C)c1C(=O)NCC1(N)CCCC1 [Example 93] | – | 7% | 65% | –
CCN(CC)CCNC(=O)c1c(C)[nH]c(/C=C2\C(=O)Nc3ccc(-c4cnn(-c5cccnc5)c4)cc32)c1C [Example 79] | – | 42% | 82% | –
Cc1[nH]c(/C=C2\C(=O)Nc3ccc(-c4cnn(-c5ccccc5)c4)cc32)c(C)c1C(=O)NC1CCNCC1 [Example 94] | – | 17% | 140% | –
Cc1[nH]c(/C=C2\C(=O)Nc3ccc(-c4cnn(-c5ccccc5)c4)cc32)c(C)c1C(=O)N[C@H]1CCCNC1 [Example 88, (S,Z)-2,4-dimethyl-5-((2-oxo-5-(1-phenyl-1H-pyrazol-4-yl)indolin-3-ylidene)methyl)-N-(piperidin-3-yl)-1H-pyrrole-3-carboxamide hydrochloride] | – | 1.4% | 122% | –
Cc1[nH]c(/C=C2\C(=O)Nc3ccc(-c4cnn(-c5ccccc5)c4)cc32)c(C)c1C(=O)NC[C@@H]1CCCN1 [Example 101] | – | 13% | 94% | –
CCN(CC)CCNC(=O)c1c(C)[nH]c(/C=C2\C(=O)Nc3ccc(-c4ccnn4-c4ccncc4)cc32)c1C [Example 66] | – | -6% | 44% | –
